Laboratory results taken from ChEMBL document CHEMBL5233274, “Current Landscape and Future Perspective of Oxazolidinone Scaffolds Containing Antibacterial Drugs” (J Med Chem, 2021).
≈ marks a conversion by molar mass, not a printed value. Blank lines part the entries; values can stand above or below the compound they belong to.

Assays:
Assay type in all cases: functional
Staphylococcus aureus [1] = experiment: Antibacterial activity against Staphylococcus aureus ATCC 25923 assessed as inhibition of bacterial growth incubated for 18 to 24 hrs by CLSI protocol based Tryptic soy broth method; conditions: time 18-24 hrs
Enterococcus faecalis [2] = experiment: Antibacterial activity against Enterococcus faecalis ATCC 29212 assessed as inhibition of bacterial growth incubated for 18 to 24 hrs by CLSI protocol based Tryptic soy broth method; conditions: time 18-24 hrs
[3] = system: Staphylococcus epidermidis; experiment: Antibacterial activity against Staphylococcus epidermidis ATCC 12228 assessed as inhibition of bacterial growth incubated for 18 to 24 hrs by CLSI protocol based Tryptic soy broth method; conditions: time 18-24 hrs
Staphylococcus aureus [4] = experiment: Antibacterial activity against methicillin-resistant Staphylococcus aureus assessed as inhibition of bacterial growth incubated for 18 to 24 hrs by CLSI protocol based Tryptic soy broth method; conditions: time 18-24 hrs
Enterococcus faecalis [5] = experiment: Antibacterial activity against Streptococcus faecalis NCIM 2080 assessed as inhibition of bacterial growth incubated for 24 hrs by serial dilution method
Staphylococcus aureus [6] = experiment: Antibacterial activity against Staphylococcus aureus NCIM 5257 assessed as inhibition of bacterial growth incubated for 24 hrs by serial broth dilution method
Bacillus subtilis [7] = experiment: Antibacterial activity against Bacillus subtilis NCIM 2097 assessed as inhibition of bacterial growth incubated for 24 hrs by serial broth dilution method
Klebsiella pneumoniae = experiment: Antibacterial activity against Klebsiella pneumoniae NCIM 5289 assessed as inhibition of bacterial growth incubated for 24 hrs by serial dilution method
Escherichia coli [8] = experiment: Antibacterial activity against Escherichia coli NCIM 2065 assessed as inhibition of bacterial growth incubated for 24 hrs by serial dilution method
Pseudomonas aeruginosa [9] = experiment: Antibacterial activity against Pseudomonas aeruginosa NCIM 5210 assessed as inhibition of bacterial growth incubated for 24 hrs by serial dilution method
Candida albicans = experiment: Antifungal activity against Candida albicans assessed as inhibition of fungal growth incubated measured per 100 uL incubated for 24 hrs by agar well diffusion method
Escherichia coli [10] = experiment: Antibacterial activity against Escherichia coli assessed as inhibition of bacterial growth measured per 100 uL incubated for 24 hrs by agar well diffusion method
Pseudomonas aeruginosa [11] = experiment: Antibacterial activity against Pseudomonas aeruginosa assessed as inhibition of bacterial growth measured per 100 uL incubated for 24 hrs by agar well diffusion method
Saccharomyces cerevisiae = experiment: Antifungal activity against Saccharomyces cerevisiae assessed as inhibition of fungal growth incubated measured per 100 uL incubated for 24 hrs by agar well diffusion method
Staphylococcus aureus [12] = experiment: Antibacterial activity against Staphylococcus aureus assessed as inhibition of bacterial growth measured per 100 uL incubated for 24 hrs by agar well diffusion method
Bacillus subtilis [13] = experiment: Antibacterial activity against Bacillus subtilis assessed as inhibition of bacterial growth measured per 100 uL incubated for 24 hrs by agar well diffusion method
Staphylococcus aureus [14] = experiment: Antibacterial activity against methicillin-resistant Staphylococcus aureus assessed as inhibition of bacterial growth by CLSI protocol based method
Staphylococcus aureus [15] = experiment: Antibacterial activity against Staphylococcus aureus ATCC 29213 assessed as inhibition of bacterial growth by CLSI protocol based method
Enterococcus = experiment: Antibacterial activity against vancomycin-resistant Enterococcus assessed as inhibition of bacterial growth by CLSI protocol based method

SMILES: Cc1nc(C)c(COc2ccc(N3C[C@H](Cn4ccnn4)OC3=O)cc2F)nc1C
MIC (Staphylococcus aureus [1]): 8 µg/mL (≈ 19.4 µM)
MIC (Enterococcus faecalis [2]): 32 µg/mL (≈ 77.6 µM)
MIC [3]: 8 µg/mL (≈ 19.4 µM)
MIC (Staphylococcus aureus [4]): 4 µg/mL (≈ 9.7 µM)

SMILES: Cc1nc(C)c(COc2ccc(N3C[C@H](Cn4ccnn4)OC3=O)cc2)nc1C
MIC (Staphylococcus aureus [1]): 64 µg/mL (≈ 162 µM)
MIC (Enterococcus faecalis [2]): 128 µg/mL (≈ 325 µM)
MIC [3]: 64 µg/mL (≈ 162 µM)
MIC (Staphylococcus aureus [4]): 32 µg/mL (≈ 81.1 µM)

MIC (Enterococcus faecalis [5]): 3.12 µg/mL (≈ 7.02 µM)
MIC (Staphylococcus aureus [6]): 3.12 µg/mL (≈ 7.02 µM)
MIC (Bacillus subtilis [7]): 3.12 µg/mL (≈ 7.02 µM)
MIC (Klebsiella pneumoniae): 3.12 µg/mL (≈ 7.02 µM)
MIC (Escherichia coli [8]): 3.12 µg/mL (≈ 7.02 µM)
MIC (Pseudomonas aeruginosa [9]): 3.12 µg/mL (≈ 7.02 µM)
SMILES: COc1cc(/C=C/C(=O)c2ccc(-c3ccc(N4C[C@H](CO)OC4=O)cc3)cc2)ccc1O

SMILES: Cc1nc(C)c(COc2ccc(N3C[C@H](CNC(=O)CCl)OC3=O)cc2F)nc1C
MIC (Staphylococcus aureus [1]): 8 µg/mL (≈ 18.3 µM)
MIC (Enterococcus faecalis [2]): 8 µg/mL (≈ 18.3 µM)
MIC [3]: 4 µg/mL (≈ 9.16 µM)
MIC (Staphylococcus aureus [4]): 2 µg/mL (≈ 4.58 µM)

SMILES: CCCCc1cn(C[C@H]2CN(c3ccc(OCc4nc(C)c(C)nc4C)c(F)c3)C(=O)O2)nn1
MIC (Staphylococcus aureus [1]): > 128 µg/mL
MIC (Enterococcus faecalis [2]): > 128 µg/mL
MIC [3]: > 128 µg/mL
MIC (Staphylococcus aureus [4]): > 128 µg/mL

SMILES: CC(=O)NC[C@H]1CN(c2ccc(OCc3nc(C)c(C)nc3C)c(F)c2)C(=O)O1
MIC (Staphylococcus aureus [1]): 8 µg/mL (≈ 19.9 µM)
MIC (Enterococcus faecalis [2]): 16 µg/mL (≈ 39.8 µM)
MIC [3]: 4 µg/mL (≈ 9.94 µM)
MIC (Staphylococcus aureus [4]): 4 µg/mL (≈ 9.94 µM)

MIC (Candida albicans): 6.25 µg
MIC (Escherichia coli [10]): 6.25 µg
SMILES: C[C@@H]1[C@H](O)[C@@H](C)/C=C/C=C/C=C/C=C/C=C/C=C/C=C/[C@H](O[C@@H]2O[C@H](C)[C@@H](O)[C@H](N)[C@@H]2O)C[C@@H]2O[C@](O)(C[C@@H](O)C[C@@H](O)[C@H](O)CC[C@@H](O)C[C@@H](O)CC(=O)O[C@H]1C)C[C@H](O)[C@H]2C(=O)O [AMPHOTERICIN B]

MIC (Enterococcus faecalis [5]): 3.12 µg/mL (≈ 7.52 µM)
MIC (Staphylococcus aureus [6]): 3.12 µg/mL (≈ 7.52 µM)
MIC (Bacillus subtilis [7]): 3.12 µg/mL (≈ 7.52 µM)
MIC (Klebsiella pneumoniae): 3.12 µg/mL (≈ 7.52 µM)
MIC (Escherichia coli [8]): 3.12 µg/mL (≈ 7.52 µM)
MIC (Pseudomonas aeruginosa [9]): 3.12 µg/mL (≈ 7.52 µM)
SMILES: O=C(/C=C/c1ccccc1O)c1ccc(-c2ccc(N3C[C@H](CO)OC3=O)cc2)cc1

MIC (Candida albicans): 12.5 µg
MIC (Pseudomonas aeruginosa [11]): 12.5 µg
MIC (Escherichia coli [10]): 12.5 µg
MIC (Saccharomyces cerevisiae): 12.5 µg
MIC (Staphylococcus aureus [12]): 12.5 µg
MIC (Bacillus subtilis [13]): 12.5 µg
SMILES: O=C1NC(Cc2ccc(Nc3nc(-c4ccccc4F)cs3)cc2)CO1 (centres undefined)

SMILES: Cc1nc(C)c(COc2ccc(N3C[C@H](CNC(=O)c4ccco4)OC3=O)cc2)nc1C
MIC (Staphylococcus aureus [1]): 128 µg/mL (≈ 293 µM)
MIC (Enterococcus faecalis [2]): > 128 µg/mL
MIC [3]: 64 µg/mL (≈ 147 µM)
MIC (Staphylococcus aureus [4]): 64 µg/mL (≈ 147 µM)

MIC (Candida albicans): 12.5 µg
MIC (Pseudomonas aeruginosa [11]): 12.5 µg
MIC (Escherichia coli [10]): 12.5 µg
MIC (Saccharomyces cerevisiae): 12.5 µg
MIC (Staphylococcus aureus [12]): 6.25 µg
MIC (Bacillus subtilis [13]): 6.25 µg
SMILES: O=C1NC(Cc2ccc(Nc3nc(-c4ccc(-c5ccccc5)cc4)cs3)cc2)CO1 (centres undefined)

MIC (Staphylococcus aureus [12]): 6.25 µg
MIC (Bacillus subtilis [13]): 6.25 µg
SMILES: O=C(O)c1cn(C2CC2)c2cc(N3CCNCC3)c(F)cc2c1=O [CIPROFLOXACIN]

MIC (Candida albicans): 12.5 µg
MIC (Pseudomonas aeruginosa [11]): 12.5 µg
MIC (Escherichia coli [10]): 12.5 µg
MIC (Saccharomyces cerevisiae): 12.5 µg
MIC (Staphylococcus aureus [12]): 12.5 µg
MIC (Bacillus subtilis [13]): 12.5 µg
SMILES: O=C1NC(Cc2ccc(Nc3nc(-c4ccc(F)cc4)cs3)cc2)CO1 (centres undefined)

SMILES: Cc1nc(C)c(COc2ccc(N3C[C@H](CO)OC3=O)cc2F)nc1C
MIC (Staphylococcus aureus [1]): 64 µg/mL (≈ 177 µM)
MIC (Enterococcus faecalis [2]): 64 µg/mL (≈ 177 µM)
MIC [3]: 128 µg/mL (≈ 354 µM)
MIC (Staphylococcus aureus [4]): 64 µg/mL (≈ 177 µM)

MIC (Enterococcus faecalis [5]): 3.12 µg/mL (≈ 7.03 µM)
MIC (Staphylococcus aureus [6]): 3.12 µg/mL (≈ 7.03 µM)
MIC (Bacillus subtilis [7]): 3.12 µg/mL (≈ 7.03 µM)
MIC (Klebsiella pneumoniae): 3.12 µg/mL (≈ 7.03 µM)
MIC (Escherichia coli [8]): 3.12 µg/mL (≈ 7.03 µM)
MIC (Pseudomonas aeruginosa [9]): 3.12 µg/mL (≈ 7.03 µM)
SMILES: O=C(/C=C/c1ccc([N+](=O)[O-])cc1)c1ccc(-c2ccc(N3C[C@H](CO)OC3=O)cc2)cc1

SMILES: CC(=O)NC[C@H]1CN(c2ccc(N3CCN(/N=C/c4ccc([N+](=O)[O-])s4)CC3)c(F)c2)C(=O)O1
MIC (Staphylococcus aureus [14]): 1 µg/mL (≈ 2.04 µM)
MIC (Staphylococcus aureus [15]): 0.25 µg/mL (≈ 0.51 µM)
MIC (Enterococcus): 2 µg/mL (≈ 4.08 µM)

SMILES: COCC(=O)NC[C@H]1CN(c2ccc(OCc3nc(C)c(C)nc3C)cc2)C(=O)O1
MIC (Staphylococcus aureus [1]): > 128 µg/mL
MIC (Enterococcus faecalis [2]): > 128 µg/mL
MIC [3]: 128 µg/mL (≈ 309 µM)
MIC (Staphylococcus aureus [4]): 64 µg/mL (≈ 154 µM)

SMILES: CC(=O)NC[C@H]1CN(c2ccc(N3CCN(Cc4ccc([N+](=O)[O-])o4)CC3)c(F)c2)C(=O)O1 [RANBEZOLID]
MIC (Staphylococcus aureus [14]): 2 µg/mL (≈ 4.33 µM)
MIC (Staphylococcus aureus [15]): 1 µg/mL (≈ 2.17 µM)
MIC (Enterococcus): 2 µg/mL (≈ 4.33 µM)

SMILES: COCC(=O)NC[C@H]1CN(c2ccc(OCc3nc(C)c(C)nc3C)c(F)c2)C(=O)O1
MIC (Staphylococcus aureus [1]): 128 µg/mL (≈ 296 µM)
MIC (Enterococcus faecalis [2]): 128 µg/mL (≈ 296 µM)
MIC [3]: 32 µg/mL (≈ 74 µM)
MIC (Staphylococcus aureus [4]): 32 µg/mL (≈ 74 µM)

MIC (Enterococcus faecalis [5]): 3.12 µg/mL (≈ 7.2 µM)
MIC (Staphylococcus aureus [6]): 3.12 µg/mL (≈ 7.2 µM)
MIC (Bacillus subtilis [7]): 3.12 µg/mL (≈ 7.2 µM)
MIC (Klebsiella pneumoniae): 3.12 µg/mL (≈ 7.2 µM)
MIC (Escherichia coli [8]): 3.12 µg/mL (≈ 7.2 µM)
MIC (Pseudomonas aeruginosa [9]): 3.12 µg/mL (≈ 7.2 µM)
SMILES: O=C(/C=C/c1ccc(Cl)cc1)c1ccc(-c2ccc(N3C[C@H](CO)OC3=O)cc2)cc1

SMILES: CC(=O)NC[C@H]1CN(c2ccc(N3CCOCC3)c(F)c2)C(=O)O1 [LINEZOLID]
MIC (Enterococcus): 2 µg/mL (≈ 5.93 µM)
